Measurements reported in ChEMBL document CHEMBL1137623, “Synthesis and in-vitro biological activity of macrocyclic urea Chk1 inhibitors” (Bioorg Med Chem Lett, 2007).
pEC50, pIC50: −log10 of the molar value.

Columns and labels:
NCI-H1299 = experiment: Cell cycle arrest in human NCI-H1299 cells assessed as accumulation at G2/M phase by FACS; assay type: functional, cell-based
[1] = molecular target: T1, Serine/threonine-protein kinase Chk1 (Homo sapiens, UniProt O14757); experiment: Inhibition of Chk1 enzyme by radiometric assay
T1 sequence (O14757 whole entry): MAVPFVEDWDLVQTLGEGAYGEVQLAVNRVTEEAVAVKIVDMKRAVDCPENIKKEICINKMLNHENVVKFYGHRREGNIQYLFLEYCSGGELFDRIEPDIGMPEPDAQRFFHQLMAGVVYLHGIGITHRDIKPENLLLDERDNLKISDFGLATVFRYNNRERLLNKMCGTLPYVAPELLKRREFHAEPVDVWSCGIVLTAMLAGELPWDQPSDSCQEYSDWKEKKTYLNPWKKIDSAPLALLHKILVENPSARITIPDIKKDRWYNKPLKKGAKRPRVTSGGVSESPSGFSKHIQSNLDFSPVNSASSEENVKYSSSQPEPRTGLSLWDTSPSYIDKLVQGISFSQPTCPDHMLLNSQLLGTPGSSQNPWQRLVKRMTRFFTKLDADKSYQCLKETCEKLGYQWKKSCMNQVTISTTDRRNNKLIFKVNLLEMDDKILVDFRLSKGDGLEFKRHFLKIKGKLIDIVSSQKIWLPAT

HeLa = experiment: Antiproliferative activity against human HeLa cells by MTS assay; assay type: functional, cell-based

SMILES | pEC50 (NCI-H1299) | pIC50 [1] | pEC50 (HeLa) | pIC50 (NCI-H1299)
N#Cc1ncc2nc1OCC/C=C\COc1ccc(CCOC3CCCCO3)cc1NC(=O)N2 (stereo not drawn) | < 5.00 | 6.97 |  | 
N#Cc1ncc2nc1OCCCCCOc1ccc(OCCCCCN3CCOCC3)cc1NC(=O)N2 | < 5.00 | 8.52 | 5.05 | 
CN(C)CCOc1ccc2c(c1)NC(=O)Nc1cnc(C#N)c(n1)OCC/C=C\CO2 | < 5.00 | 7.82 | 4.52 | 
N#Cc1ncc2nc1OCC/C=C\COc1ccc(OCCCN3CCOCC3)cc1NC(=O)N2 | < 5.00 | 8.30 | < 4.23 | 
N#Cc1ncc2nc1OC/C=C\COc1ccc(OCCCCCN3CCCOC3)cc1NC(=O)N2 |  | 8.70 | < 4.23 | 
N#Cc1ncc2nc1OCCCCOc1ccc(OCCCCCN3CCCOC3)cc1NC(=O)N2 |  | 8.52 | < 4.23 | 
N#Cc1ncc2nc1OCCCCCOc1ccc(Cl)cc1NC(=O)N2 | < 5.00 | 7.96 | 4.24 | 
N#Cc1ncc2nc1OCCCCOc1ccc(OCCCN3CCOCC3)cc1NC(=O)N2 |  | 8.70 | < 4.23 | 
N#Cc1ncc2nc1OCCCCCOc1ccc(CCCO)cc1NC(=O)N2 | < 5.00 | 7.62 | < 4.23 | 
COc1ccc2c(c1)NC(=O)Nc1cnc(C#N)c(n1)OCCCCCO2 | < 5.00 | 7.60 | < 4.23 | 
N#Cc1ncc2nc1OCC/C=C\COc1ccc(O)cc1NC(=O)N2 | < 5.00 | 7.47 | < 4.23 | 
CC(C)(C)[Si](Oc1ccc2c(c1)NC(=O)Nc1cnc(C#N)c(n1)OCC/C=C\CO2)(c1ccccc1)c1ccccc1 |  | < 5.00 |  | 
N#Cc1ncc2nc1OCCCCCOc1ccc(CCO)cc1NC(=O)N2 | < 5.00 | 7.41 | < 4.23 | 
N#Cc1ncc2nc1OCC/C=C\COc1ccc(OCCCCN3CCOCC3)cc1NC(=O)N2 |  | 8.22 |  | 
N#Cc1ncc2nc1OC/C=C\COc1ccc(OCCCCN3CCOCC3)cc1NC(=O)N2 |  | 8.40 | 5.12 | 
CCOc1ccc2c(c1)NC(=O)Nc1cnc(C#N)c(n1)OCC/C=C\CO2 | < 5.00 | 7.72 | < 4.23 | 
COc1ccc(NC(C)=O)cc1NC(=O)Nc1cnc(C#N)cn1 |  | 7.66 |  | 
CC(=O)Nc1ccc2c(c1)NC(=O)Nc1cnc(C#N)c(n1)OCC/C=C\CO2 |  | 7.80 | 4.40 | < 5.00
N#Cc1ncc2nc1OCCCCCOc1ccc(OCCCN3CCOCC3)cc1NC(=O)N2 | < 5.00 | 8.15 | 5.39 | 
N#Cc1ncc2nc1OCC/C=C\COc1ccc(CCCO)cc1NC(=O)N2 | < 5.00 | 7.16 | < 4.23 | 
N#Cc1ncc2nc1OCC/C=C\COc1ccccc1NC(=O)N2 | < 5.00 | 7.92 | 4.40 | 

SMILES | pEC50 (NCI-H1299) | pIC50 [1] | pEC50 (HeLa) | pIC50 (NCI-H1299)
N#Cc1ncc2nc1OCCCCCOc1ccc(Br)cc1NC(=O)N2 | < 5.00 | 7.92 | 4.28 | 
CC(=O)Nc1ccc2c(c1)NC(=O)Nc1cnc(C#N)c(n1)OCCCCCO2 |  | 8.10 |  | 
N#Cc1ncc2nc1OCC/C=C\COc1ccc(CCO)cc1NC(=O)N2 | < 5.00 | 7.01 |  | 
COc1ccc2c(c1)NC(=O)Nc1cnc(C#N)c(n1)OCC/C=C\CO2 | < 5.00 | 7.43 | < 4.23 | 
N#Cc1ncc2nc1OCCCCOc1ccc(OCCCCN3CCOCC3)cc1NC(=O)N2 |  | 8.40 | < 4.23 | 
N#Cc1ncc2nc1OC/C=C\COc1ccc(Cl)cc1NC(=O)N2 | < 5.00 | 8.30 | < 4.23 | 
N#Cc1ncc2nc1OCC/C=C\COc1ccc(OCCCCCN3CCOCC3)cc1NC(=O)N2 | < 5.00 | 8.30 | 5.28 | 
CCOc1ccc2c(c1)NC(=O)Nc1cnc(C#N)c(n1)OCCCCCO2 | < 5.00 | 7.26 | < 4.23 | 
N#Cc1ncc2nc1OCCCCCOc1ccc(OCCO)cc1NC(=O)N2 | < 5.00 | 7.96 | < 4.23 | 
Cc1ccc2c(c1)NC(=O)Nc1cnc(C#N)c(n1)OCC/C=C\CO2 | < 5.00 | 7.82 | < 4.23 | 
CCOc1ccc(OCC)c(NC(=O)Nc2cnc(C#N)cn2)c1 |  | 7.51 |  | 
N#Cc1ncc2nc1OC/C=C\COc1ccc(OCCCN3CCOCC3)cc1NC(=O)N2 |  | 8.40 | < 4.23 | 
N#Cc1ncc2nc1OCC/C=C\COc1ccc(Cl)cc1NC(=O)N2 | < 5.00 | 8.00 | 4.92 | 
N#Cc1ncc2nc1OCCCCOc1ccc(Cl)cc1NC(=O)N2 | < 5.00 |  | < 4.23 | 
N#Cc1ncc2nc1OCCCCCOc1ccccc1NC(=O)N2 | < 5.00 | 7.80 | < 4.23 | 
Cc1ccc2c(c1)NC(=O)Nc1cnc(C#N)c(n1)OCCCCCO2 |  | 8.10 |  | 
N#Cc1ncc2nc1OCC/C=C\COc1ccc(Br)cc1NC(=O)N2 | < 5.00 | 7.92 | 4.53 | 
N#Cc1ncc2nc1OCC/C=C\COc1ccc(CCCOC3CCCCO3)cc1NC(=O)N2 (stereo not drawn) | < 5.00 | 7.04 | < 4.23 | 
N#Cc1ncc2nc1OCCCCCOc1ccc(OCCCCN3CCOCC3)cc1NC(=O)N2 |  | 8.52 |  | 
N#Cc1ncc2nc1OCC/C=C\COc1ccc(OCCO)cc1NC(=O)N2 | < 5.00 | 7.89 | < 4.23 | 
N#Cc1ncc2nc1OCC/C=C\COc1ccc(OCCOC3CCCCO3)cc1NC(=O)N2 (stereo not drawn) | < 5.00 | 7.72 | 4.51 | 
